From the supplement of paper PMC9663587

Assays:
BSJ-03-123 = compound: CC(=O)c1c(C)c2cnc(Nc3ccc(N4CCN(CCOCCOCCOCCNC(=O)COc5cccc6c5C(=O)N(C5CCC(=O)NC5=O)C6=O)CC4)cn3)nc2n(C2CCCC2)c1=O [BSJ-03-123]; experiment: increase in dead-cell fraction, 72 h; higher = more death;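 further: breast cancer cell lines in 384-well plates, stained with Hoechst plus LIVE/DEAD far red dye and imaged, cells above an LDR intensity threshold counted dead, Hoechst-negative corpses included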
[1] = compound: CC(=O)c1c(C)c2cnc(Nc3ccc(N4CCNCC4)cn3)nc2n(C2CCCC2)c1=O; experiment: as above
[2] = compound: CCN1CCN(Cc2ccc(Nc3ncc(F)c(-c4cc(F)c5nc(C)n(C(C)C)c5c4)n3)nc2)CC1; experiment: as above
Neratinib/HKI272 = compound: CCOc1cc2ncc(C#N)c(Nc3ccc(OCc4ccccn4)c(Cl)c3)c2cc1NC(=O)/C=C/CN(C)C [Neratinib/HKI272]; experiment: as above
[3] = compound: CCc1cnn2c(NCc3ccc[n+]([O-])c3)cc(N3CCCC[C@H]3CCO)nc12; experiment: as above
LEE011/Ribociclib = compound: CN(C)C(=O)c1cc2cnc(Nc3ccc(N4CCNCC4)cn3)nc2n1C1CCCC1 [LEE011/Ribociclib]; experiment: as above
THZ1 [4] = compound: T1, CN(C)C/C=C/C(=O)Nc1ccc(C(=O)Nc2cccc(Nc3ncc(Cl)c(-c4c[nH]c5ccccc45)n3)c2)cc1 [THZ1]; experiment: as above
Flavopiridol [5] = compound: T2, CN1CC[C@H](c2c(O)cc(O)c3c(=O)cc(-c4ccccc4Cl)oc23)[C@H](O)C1 [Flavopiridol]; experiment: as above
[6] = compound: CC(=O)c1c(C)c2cnc(Nc3ccc(N4CCNCC4)cn3)nc2n(C2CCCC2)c1=O; experiment: GR value, 72 h; higher = faster growth (1 = untreated, <0 = killing);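 further: breast cancer and non-malignant breast epithelial lines, nine half-log doses, viable cells counted by Hoechst and LIVE/DEAD dye imaging versus time-zero plates and DMSO controls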
THZ531 = compound: CN(C)C/C=C/C(=O)Nc1ccc(C(=O)N2CCC[C@@H](Nc3ncc(Cl)c(-c4c[nH]c5ccccc45)n3)C2)cc1 [THZ531]; experiment: as above
THZ1 [7] = compound: T1, THZ1; experiment: as above
Flavopiridol [8] = compound: T2, Flavopiridol; experiment: as above

Question: Which results are given for HCC202?
Answer: increase in dead-cell fraction (BSJ-03-123; 0.001 µM): 0.0092; increase in dead-cell fraction (BSJ-03-123; 0.003162 µM): 0.0099; increase in dead-cell fraction (BSJ-03-123; 0.01 µM): 0.0404; increase in dead-cell fraction (BSJ-03-123; 0.03162 µM): 0.0154; increase in dead-cell fraction (BSJ-03-123; 0.1 µM): 0.0009; increase in dead-cell fraction (BSJ-03-123; 0.3162 µM): 0.0019; increase in dead-cell fraction (BSJ-03-123; 1 µM): 0.0243; increase in dead-cell fraction (BSJ-03-123; 3.162 µM): 0.0201; increase in dead-cell fraction (BSJ-03-123; 10 µM): 0.126; increase in dead-cell fraction ([1]; 0.0003162 µM): 0.0137; increase in dead-cell fraction ([1]; 0.001 µM): -0.0003; increase in dead-cell fraction ([1]; 0.003162 µM): 0.0115; increase in dead-cell fraction ([1]; 0.01 µM): 0.0189; increase in dead-cell fraction ([1]; 0.03162 µM): 0.0085; increase in dead-cell fraction ([1]; 0.1 µM): 0.0163; increase in dead-cell fraction ([1]; 0.3162 µM): 0.0112; increase in dead-cell fraction ([1]; 1 µM): 0.0306; increase in dead-cell fraction ([1]; 3.162 µM): 0.0531; increase in dead-cell fraction ([2]; 0.001 µM): 0.0017; increase in dead-cell fraction ([2]; 0.003162 µM): 0.0045; increase in dead-cell fraction ([2]; 0.01 µM): 0.0025; increase in dead-cell fraction ([2]; 0.03162 µM): 0.0166; increase in dead-cell fraction ([2]; 0.1 µM): 0.02; increase in dead-cell fraction ([2]; 0.3162 µM): 0.0336; increase in dead-cell fraction ([2]; 1 µM): 0.0207; increase in dead-cell fraction ([2]; 3.162 µM): 0.049; increase in dead-cell fraction ([2]; 10 µM): 0.0763; increase in dead-cell fraction (Neratinib/HKI272; 0.0003162 µM): -0.0093; increase in dead-cell fraction (Neratinib/HKI272; 0.001 µM): -0.0087; increase in dead-cell fraction (Neratinib/HKI272; 0.003162 µM): 0.0183; increase in dead-cell fraction (Neratinib/HKI272; 0.01 µM): 0.0049; increase in dead-cell fraction (Neratinib/HKI272; 0.03162 µM): 0.0466; increase in dead-cell fraction (Neratinib/HKI272; 0.1 µM): 0.0644; increase in dead-cell fraction (Neratinib/HKI272; 0.3162 µM): 0.0996; increase in dead-cell fraction (Neratinib/HKI272; 1 µM): 0.103; increase in dead-cell fraction (Neratinib/HKI272; 3.162 µM): 0.136; increase in dead-cell fraction ([3]; 0.0001 µM): 0.0056; increase in dead-cell fraction ([3]; 0.0003162 µM): 0.0103; increase in dead-cell fraction ([3]; 0.001 µM): -0.0029; increase in dead-cell fraction ([3]; 0.003162 µM): -0.0193; increase in dead-cell fraction ([3]; 0.01 µM): -0.0112; increase in dead-cell fraction ([3]; 0.03162 µM): 0.132; increase in dead-cell fraction ([3]; 0.1 µM): 0.106; increase in dead-cell fraction ([3]; 0.3162 µM): 0.122; increase in dead-cell fraction ([3]; 1 µM): 0.126; increase in dead-cell fraction (LEE011/Ribociclib; 0.001 µM): 0.0107; increase in dead-cell fraction (LEE011/Ribociclib; 0.003162 µM): -0.0028; increase in dead-cell fraction (LEE011/Ribociclib; 0.01 µM): 0.0035; increase in dead-cell fraction (LEE011/Ribociclib; 0.03162 µM): 0.0081; increase in dead-cell fraction (LEE011/Ribociclib; 0.1 µM): 0.0043; increase in dead-cell fraction (LEE011/Ribociclib; 0.3162 µM): 0.0132; increase in dead-cell fraction (LEE011/Ribociclib; 1 µM): 0.0255; increase in dead-cell fraction (LEE011/Ribociclib; 3.162 µM): 0.0242; increase in dead-cell fraction (LEE011/Ribociclib; 10 µM): 0.0292; increase in dead-cell fraction (THZ1 [4]; 0.0001 µM): 0.0041; increase in dead-cell fraction (THZ1 [4]; 0.0003162 µM): -0.0036; increase in dead-cell fraction (THZ1 [4]; 0.001 µM): 0.0114; increase in dead-cell fraction (THZ1 [4]; 0.003162 µM): 0.0077; increase in dead-cell fraction (THZ1 [4]; 0.01 µM): 0.0009; increase in dead-cell fraction (THZ1 [4]; 0.03162 µM): 0.0391; increase in dead-cell fraction (THZ1 [4]; 0.1 µM): 0.0709; increase in dead-cell fraction (THZ1 [4]; 0.3162 µM): 0.103; increase in dead-cell fraction (THZ1 [4]; 1 µM): 0.164; increase in dead-cell fraction (Flavopiridol [5]; 0.0001 µM): 0.0217; increase in dead-cell fraction (Flavopiridol [5]; 0.0003162 µM): -0.005; increase in dead-cell fraction (Flavopiridol [5]; 0.001 µM): 0.0178; increase in dead-cell fraction (Flavopiridol [5]; 0.003162 µM): -0.0039; increase in dead-cell fraction (Flavopiridol [5]; 0.01 µM): -0.0121; increase in dead-cell fraction (Flavopiridol [5]; 0.03162 µM): 0.0154; increase in dead-cell fraction (Flavopiridol [5]; 0.1 µM): 0.0477; increase in dead-cell fraction (Flavopiridol [5]; 0.3162 µM): 0.115; increase in dead-cell fraction (Flavopiridol [5]; 1 µM): 0.133; GR value ([6]; 0.0003162 µM): 0.895 GR; GR value ([6]; 0.001 µM): 1 GR; GR value ([6]; 0.003162 µM): 0.904 GR; GR value ([6]; 0.01 µM): 0.913 GR; GR value ([6]; 0.03162 µM): 0.889 GR; GR value ([6]; 0.1 µM): 0.798 GR; GR value ([6]; 0.3162 µM): 0.851 GR; GR value ([6]; 1 µM): 0.753 GR; GR value ([6]; 3.162 µM): 0.693 GR; GR value (THZ531; 0.0001 µM): 1.12 GR; GR value (THZ531; 0.0003162 µM): 0.893 GR; GR value (THZ531; 0.001 µM): 0.907 GR; GR value (THZ531; 0.003162 µM): 1.12 GR; GR value (THZ531; 0.01 µM): 0.883 GR; GR value (THZ531; 0.03162 µM): 0.809 GR; GR value (THZ531; 0.1 µM): 0.411 GR; GR value (THZ531; 0.3162 µM): 0.0512 GR; GR value (THZ531; 1 µM): 0.151 GR; GR value (THZ1 [7]; 0.0001 µM): 0.915 GR; GR value (THZ1 [7]; 0.0003162 µM): 1.02 GR; GR value (THZ1 [7]; 0.001 µM): 0.961 GR; GR value (THZ1 [7]; 0.003162 µM): 0.866 GR; GR value (THZ1 [7]; 0.01 µM): 0.8 GR; GR value (THZ1 [7]; 0.03162 µM): 0.397 GR; GR value (THZ1 [7]; 0.1 µM): 0.154 GR; GR value (THZ1 [7]; 0.3162 µM): 0.0808 GR; GR value (THZ1 [7]; 1 µM): 0.0457 GR; GR value (Flavopiridol [8]; 0.0001 µM): 1.09 GR; GR value (Flavopiridol [8]; 0.0003162 µM): 1.05 GR; GR value (Flavopiridol [8]; 0.001 µM): 0.845 GR; GR value (Flavopiridol [8]; 0.003162 µM): 0.773 GR; GR value (Flavopiridol [8]; 0.01 µM): 0.976 GR; GR value (Flavopiridol [8]; 0.03162 µM): 0.893 GR; GR value (Flavopiridol [8]; 0.1 µM): 0.68 GR; GR value (Flavopiridol [8]; 0.3162 µM): 0.24 GR; GR value (Flavopiridol [8]; 1 µM): 0.0609 GR
